This passage reports Ki results from patent US7432256B2, “Substitued imidazo [1,5-A][1,2,4]triazolo[1,5-D][1,4]benzodiazepine derivatives” (Hoffman-La Roche Inc., priority 2004, dated 2008).

The target of experiment [1] is T1, GABA A receptor a2b3g2 (hα2) (Homo sapiens, UniProt P18507+P47869).
T1 construct: expressed in transfected cells; host or cells: HEK293 (transient transfection), membranes
Kind of experiment: [3H]flumazenil competition binding, GABA A a2b3g2 receptors in HEK293 cells. How it is done: (§1) Membrane Preparation and Binding Assay
(§2) The affinity of compounds at GABA A receptor subtypes was measured by competition for [3H]flumazenil (85 Ci/mmol; Roche) binding to HEK293 cells expressing rat (stably transfected) or human (transiently transfected) receptors of composition a1b3g2, a2b3g2, a3b3g2 and a5b3g2.
(§3) Cell pellets were suspended in Krebs-tris buffer (4.8 mM KCl, 1.2 mM CaCl2, 1.2 mM MgCl2, 120 mM NaCl, 15 mM Tris; pH 7.5; binding assay buffer), homogenized by polytron for ca. 20 sec on ice and centrifuged for 60 min at 4° C. (50000 g; Sorvall, rotor: SM24=20000 rpm). The cell pellets were resuspended in Krebs-tris buffer and homogenized by polytron for ca. 15 sec on ice. Protein was measured (Bradford method, Bio-Rad) and aliquots of 1 mL were prepared and stored at −80° C.
(§4) Radioligand binding assays were carried out in a volume of […] (96-well plates) which contained […] of cell memebranes, [3H]flumazenil at a concentration of 1 nM for a1, a2, a3 subunits and 0.5 nM for a5 subunits and the test compound in the range of 10-10-3×10^-6 M. Nonspecific binding was defined by 10^-5 M diazepam and typically represented less than 5% of the total binding. Assays were incubated to equilibrium for 1 hour at 4° C. and harvested onto GF/C uni-filters (Packard) by filtration using a Packard harvester and washing with ice-cold wash buffer (50 mM Tris; pH 7.5). After drying, filter-retained radioactivity was detected by liquid scintillation counting. Ki values were calculated using Excel-Fit (Microsoft) and are the means of two determinations.
(§5) The major important difference is change from SF9 to HEK293 cells (which are human transiently transfected).

Experiment [2] deals with T2, GABA A receptor a5b3g2 (hα5) (Homo sapiens, UniProt P18507+P31644).
T2 construct: expressed in transfected cells; host or cells: HEK293 (transient transfection), membranes
Kind of experiment: [3H]flumazenil competition binding, GABA A a5b3g2 receptors in HEK293 cells. Particulars: [3H]flumazenil 0.5 nM; HEK293 membranes, human transiently transfected; mean of two determinations; read-out: Ki[nM] hα5. How it is done:
as §1, §2, §3
(§6) Assays were incubated to equilibrium for 1 hour at 4° C. and harvested onto GF/C uni-filters (Packard) by filtration using a Packard harvester and washing with ice-cold wash buffer (50 mM Tris; pH 7.5). After drying, filter-retained radioactivity was detected by liquid scintillation counting. Ki values were calculated using Excel-Fit (Microsoft) and are the means of two determinations.
as §5

The target in experiment [3] is T3, GABA A receptor a3b3g2 (hα3) (Homo sapiens, UniProt P18507+P34903).
T3 construct: expressed in transfected cells; host or cells: HEK293 (transient transfection), membranes
The experiment can be described thus: [3H]flumazenil competition binding, GABA A a3b3g2 receptors in HEK293 cells. How it is done:
as §1, §2, §3, §4, §5

Experiment [4] concerns the target T4, GABA A receptor a1b3g2 (hα1) (Homo sapiens, UniProt P14867+P18507).
T4 construct: expressed in transfected cells; host or cells: HEK293 (transient transfection), membranes
Kind of experiment: [3H]flumazenil competition binding, GABA A a1b3g2 receptors in HEK293 cells. How it is done:
as §1, §2, §3, §6, §5

In general, Ki refers to the dissociation constant of the complex between target and ligand, obtained from inhibition or displacement. Take `CCCc1ncn2c1Cn1ncnc1-c1cc(Cl)ccc1-2` [Example 12, 3-Chloro-10-propyl-9H-imidazo[1,5-a][1,2,4]triazolo[1,5-d][1,4]benzodiazepine]: the Ki stood at 7.9 nM in experiment [1], 1.6 nM in experiment [2], 5.6 nM in experiment [3] and 4.2 nM in experiment [4].
With `Clc1ccc2c(c1)-c1ncnn1Cc1c(CC3CC3)ncn1-2` [Example 14, 3-Chloro-10-cyclopropylmethyl-9H-imidazo[1,5-a][1,2,4]triazolo[1,5-d][1,4]benzodiazepine], the Ki stood at 10.2 nM in experiment [1], 1.7 nM in experiment [2], 6.1 nM in experiment [3] and 4.9 nM in experiment [4].
